Where “and” joins values, the source holds several entries; their conditions need not be identical. Equal values may be shown once. Inconclusive results and toxic doses are left out. Rule for the calls: active = survival T/C of 150% or more; inactive = T/C below 125% in these data.
Tested on: BDF1 mice, P388 leukemia ip, median survival T/C
Test: NCI In Vivo Anticancer Drug Screen. Data for tumor model P388 Leukemia (intraperitoneal) in B6D2F1 (BDF1) mice
Settings: endpoint: median survival time, higher = longer survival
Outline: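 Reported as T/C, where T is the survival measurement in dosed animals and C the same measurement in vehicle controls.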

Measured: T/C

COC(=O)[C@@H](O)[C@](O)(CCC(C)C)C(=O)O[C@@H]1C(OC)=C[C@]23CCCN2CCc2cc4c(cc2[C@H]13)OCO4
active: dose: 1.0 mg/kg/injection, schedule: Q03HX024 (ip), vehicle: saline 200 % of control | dose: 1.87 mg/kg/injection, schedule: Q01DX009 (ip), vehicle: water 150 % of control and 161 % of control | dose: 2.0 mg/kg/injection, schedule: Q03HX016 (ip), vehicle: saline 177 % of control | dose: 2.0 mg/kg/injection, schedule: Q03HX024 (ip), vehicle: saline 222 % of control | dose: 3.0 mg/kg/injection, schedule: Q01DX010 (ip), vehicle: saline 181 % of control | dose: 3.75 mg/kg/injection, schedule: Q01DX009 (ip), vehicle: water 172 % of control and 188 % of control | dose: 4.0 mg/kg/injection, schedule: Q03HX008 (ip), vehicle: saline 166 % of control | dose: 6.0 mg/kg/injection, schedule: Q01DX009 (ip), vehicle: saline 163 % of control | dose: 6.0 mg/kg/injection, schedule: Q01DX010 (ip), vehicle: saline 182 % of control | dose: 7.5 mg/kg/injection, schedule: Q01DX009 (ip), vehicle: saline 195 % of control | dose: 7.5 mg/kg/injection, schedule: Q01DX009 (ip), vehicle: water 266 % of control and 272 % of control | dose: 8.0 mg/kg/injection, schedule: Q01DX006 (iv), vehicle: saline 188 % of control | dose: 8.0 mg/kg/injection, schedule: Q01DX009 (ip), vehicle: saline 235 % of control and 172 % of control and 222 % of control | dose: 8.0 mg/kg/injection, schedule: Q01DX009 (oral), vehicle: saline 200 % of control | dose: 8.0 mg/kg/injection, schedule: Q01DX009 (sc), vehicle: saline 200 % of control and 205 % of control | dose: 12.0 mg/kg/injection, schedule: Q01DX010 (ip), vehicle: saline 208 % of control | dose: 16.0 mg/kg/injection, schedule: Q01DX009 (ip), vehicle: saline 305 % of control and 209 % of control | dose: 16.0 mg/kg/injection, schedule: Q01DX009 (oral), vehicle: saline 161 % of control | dose: 16.0 mg/kg/injection, schedule: Q04DX003 (ip), vehicle: saline 150 % of control | dose: 24.0 mg/kg/injection, schedule: Q01DX010 (ip), vehicle: saline 252 % of control
inactive: dose: 0.25 mg/kg/injection, schedule: Q01DX009 (ip), vehicle: saline 115 % of control | dose: 0.25 mg/kg/injection, schedule: Q03HX008 (ip), vehicle: saline 115 % of control | dose: 0.25 mg/kg/injection, schedule: Q03HX016 (ip), vehicle: saline 120 % of control | dose: 0.38 mg/kg/injection, schedule: Q01DX010 (ip), vehicle: saline 118 % of control | dose: 0.41 mg/kg/injection, schedule: Q01DX009 (ip), vehicle: saline 108 % of control | dose: 0.5 mg/kg/injection, schedule: Q01DX006 (iv), vehicle: saline 100 % of control | dose: 0.5 mg/kg/injection, schedule: Q01DX009 (ip), vehicle: saline 110 % of control | dose: 0.5 mg/kg/injection, schedule: Q01DX009 (oral), vehicle: saline 110 % of control | dose: 0.5 mg/kg/injection, schedule: Q01DX009 (sc), vehicle: saline 110 % of control | dose: 0.5 mg/kg/injection, schedule: Q03HX008 (ip), vehicle: saline 110 % of control | dose: 0.5 mg/kg/injection, schedule: Q03HX016 (ip), vehicle: saline 120 % of control | dose: 0.62 mg/kg/injection, schedule: Q01DX009 (ip), vehicle: saline 108 % of control | dose: 1.0 mg/kg/injection, schedule: Q01DX006 (iv), vehicle: saline 110 % of control | dose: 1.0 mg/kg/injection, schedule: Q01DX009 (ip), vehicle: saline 120 % of control | dose: 1.0 mg/kg/injection, schedule: Q01DX009 (oral), vehicle: saline 110 % of control | dose: 1.0 mg/kg/injection, schedule: Q01DX009 (sc), vehicle: saline 110 % of control | dose: 1.0 mg/kg/injection, schedule: Q03HX008 (ip), vehicle: saline 120 % of control | dose: 1.0 mg/kg/injection, schedule: Q04DX003 (ip), vehicle: saline 110 % of control | dose: 1.5 mg/kg/injection, schedule: Q01DX009 (ip), vehicle: saline 118 % of control | dose: 2.0 mg/kg/injection, schedule: Q01DX001 (ip), vehicle: saline 100 % of control | dose: 2.0 mg/kg/injection, schedule: Q01DX001 (iv), vehicle: saline 110 % of control | dose: 2.0 mg/kg/injection, schedule: Q01DX001 (oral), vehicle: saline 110 % of control | dose: 2.0 mg/kg/injection, schedule: Q01DX001 (sc), vehicle: saline 110 % of control | dose: 2.0 mg/kg/injection, schedule: Q01DX006 (iv), vehicle: saline 120 % of control | dose: 2.0 mg/kg/injection, schedule: Q01DX009 (ip), vehicle: saline 120 % of control | dose: 2.0 mg/kg/injection, schedule: Q01DX009 (oral), vehicle: saline 110 % of control | dose: 2.0 mg/kg/injection, schedule: Q01DX009 (sc), vehicle: saline 115 % of control | dose: 2.0 mg/kg/injection, schedule: Q04DX003 (ip), vehicle: saline 115 % of control | dose: 2.0 mg/kg/injection, schedule: Q08DX002 (ip), vehicle: saline 110 % of control | dose: 4.0 mg/kg/injection, schedule: Q01DX001 (ip), vehicle: saline 110 % of control | dose: 4.0 mg/kg/injection, schedule: Q01DX001 (iv), vehicle: saline 105 % of control | dose: 4.0 mg/kg/injection, schedule: Q01DX001 (oral), vehicle: saline 110 % of control | dose: 4.0 mg/kg/injection, schedule: Q01DX001 (sc), vehicle: saline 110 % of control | dose: 4.0 mg/kg/injection, schedule: Q04DX003 (ip), vehicle: saline 110 % of control | dose: 4.0 mg/kg/injection, schedule: Q08DX002 (ip), vehicle: saline 105 % of control | dose: 8.0 mg/kg/injection, schedule: Q01DX001 (ip), vehicle: saline 110 % of control | dose: 8.0 mg/kg/injection, schedule: Q01DX001 (iv), vehicle: saline 110 % of control | dose: 8.0 mg/kg/injection, schedule: Q01DX001 (oral), vehicle: saline 105 % of control | dose: 8.0 mg/kg/injection, schedule: Q01DX001 (sc), vehicle: saline 100 % of control | dose: 15.0 mg/kg/injection, schedule: Q01DX009 (ip), vehicle: water 105 % of control | dose: 16.0 mg/kg/injection, schedule: Q01DX001 (ip), vehicle: saline 110 % of control | dose: 16.0 mg/kg/injection, schedule: Q01DX001 (iv), vehicle: saline 120 % of control | dose: 16.0 mg/kg/injection, schedule: Q01DX001 (oral), vehicle: saline 115 % of control | dose: 16.0 mg/kg/injection, schedule: Q01DX001 (sc), vehicle: saline 110 % of control | dose: 16.0 mg/kg/injection, schedule: Q01DX009 (sc), vehicle: saline 105 % of control | dose: 32.0 mg/kg/injection, schedule: Q08DX002 (ip), vehicle: saline 111 % of control | dose: 125.0 micrograms/kg/injection, schedule: Q03HX024 (ip), vehicle: saline 100 % of control | dose: 250.0 micrograms/kg/injection, schedule: Q03HX024 (ip), vehicle: saline 110 % of control | dose: 500.0 micrograms/kg/injection, schedule: Q03HX024 (ip), vehicle: saline 120 % of control
